Measured values from US20080176957A1, “PRESERVATIVE COMPOSITIONS COMPRISING RENEWABLY-BASED, BIODEGRADABLE 1,3-PROPANEDIOL” (priority 2006, published 2008).
Where two headings read alike, the source gives them in different places.

Assays:
humans [1] = assay: Second human study of irritation or delayed contact hypersensitivity, Bio-PDO vs PG (Example 3); format: in vivo
Text: A second study to determine the potential of biologically-derived 1,3-propanediol and PG, diluted to concentrations of 25%, 50%, and 75% (pH 4, 7 and 9 tested) to cause irritation or delayed contact hypersensitivity in humans.

skin = settings: background statement, Kinnunen et al. 1991; cited from earlier work
humans [2] = assay: Human repeated patch test for irritation or delayed contact hypersensitivity (Example 2); format: in vivo; settings: diluted with D.I. water to 5%, 25% and 50%, nine 24-hour induction patches and challenge
Text: The purpose of this study was to determine the potential of biologically-derived 1,3-propanediol, diluted to concentrations of 5%, 25%, and 50%, to cause irritation or delayed contact hypersensitivity in humans. The method employed in carrying out this test, described below, was similar to that described in “Appraisal of the Safety of Chemicals in Foods, Drugs and Cosmetics” by […] and published by the Association of Food and Drug Officials of the United States, the entirety of which is incorporated herein by reference.
Test Panel: The test involved the application of the test article to the upper arms of a group of 112 volunteer panelists. The panelists ranged from 16 to 71 years of age. One hundred and five panelists completed the study. Prior to the initiation of the study, all panelists were in good general health and free of any visible skin disease or anomaly in the area to be patched. Each panelist was required to read, understand and sign an informed consent statement. […]

[3] = Solubility of compounds and common preservatives in Bio-PDO and PG; format: physicochemical
Text: Cosmetic preservative blends need a broad range of protection against gram positive and negative bacteria, yeasts and molds. In cosmetics, solubility is also important. Clear solutions are preferred to emulsions, suspensions or dispersions. […] Other preservatives or a mixture of preservatives can be used with Bio-PDO™, such as choloracetamide sodium benzoate, 5-bromo-5-nitro-1,3-dioxane, butyl paraben, ethyl paraben, isobutyl paraben, iodopropynyl butylcarbamate, and 2,4,4′-trichloro-2′-[…].

CC(O)CO (centres unmarked) [PG, propylene glycol, reference compound]
Dermal irritation (humans [1]; in vivo, pH 7): produced dermal irritation at all three concentrations
Skin irritation and sensitization (skin): is a skin irritant and skin sensitizer

OCCCO [Bio-PDO™, 1,3-propanediol]
Skin irritation, fatiguing or sensitization (humans [2]): not to be a skin irritant, fatiguing agent, or sensitizing agent
Dermal irritation or sensitization reactions (humans [1]; humans, 25, 50 and 75% at pH 7, or 75% at pH 4 and 9): did not produce any clinically significant dermal irritation or sensitization reactions

O=C(O)c1ccccc1O [Salicyclic acid]
Solubility in Bio-PDO ™ ([3]; 10 Wt % in Bio-PDO (Table 2)): Soluble
Solubility in PG ([3]; 10 Wt % in PG (Table 2)): Soluble
Solubility in Bio-PDO ™ ([3]; 15 Wt % in Bio-PDO (Table 2)): Soluble
Solubility in PG ([3]; 15 Wt % in PG (Table 2)): Soluble
Solubility in Bio-PDO ™ ([3]; 20 Wt % in Bio-PDO (Table 2)): Not Soluble
Solubility in PG ([3]; 20 Wt % in PG (Table 2)): Soluble

CC(C)O [IPA]
Solubility in Bio-PDO ™ ([3]; 50 Wt % in Bio-PDO (Table 1)): Soluble
Solubility in PG ([3]; 50 Wt % in PG (Table 1)): Soluble

OCC(O)CO [Glycerol]
Solubility in Bio-PDO ™ [3]: Soluble
Solubility in PG [3]: Soluble

Oc1cc(Cl)ccc1Oc1ccc(Cl)cc1Cl [Irgasan]
Solubility in Bio-PDO ™ ([3]; 20 Wt % in Bio-PDO (Table 2)): Soluble
Solubility in PG ([3]; 20 Wt % in PG (Table 2)): Soluble

OCCCCO [1,4-Butanediol]
Solubility in Bio-PDO ™ ([3]; 50 Wt % in Bio-PDO (Table 1)): Soluble
Solubility in PG ([3]; 50 Wt % in PG (Table 1)): Soluble

CCO [Ethanol]
Solubility in Bio-PDO ™ [3]: Soluble
Solubility in PG [3]: Soluble
